Assay results: paper PMC8888699, “Crystal structure and catalytic mechanism of the MbnBC holoenzyme required for methanobactin biosynthesis” (Cell Research, 2022)
Where two headings read alike, the source gives them in different places. Ends that are not written are not given here. Peptide text beside a SMILES is read from it.

What was measured:
[1] = target: T1, RrMbnBC (Rugamonas rubra, UniProt A0A1I4IFH0+A0A1I4IFL0); test: UV-Vis activity assay, MbnA modification by RrMbnBC; type: biochemical, Rugamonas rubra ATCC 43154; conditions: co-expressed in Escherichia coli
T1 sequence (A0A1I4IFL0 1-277): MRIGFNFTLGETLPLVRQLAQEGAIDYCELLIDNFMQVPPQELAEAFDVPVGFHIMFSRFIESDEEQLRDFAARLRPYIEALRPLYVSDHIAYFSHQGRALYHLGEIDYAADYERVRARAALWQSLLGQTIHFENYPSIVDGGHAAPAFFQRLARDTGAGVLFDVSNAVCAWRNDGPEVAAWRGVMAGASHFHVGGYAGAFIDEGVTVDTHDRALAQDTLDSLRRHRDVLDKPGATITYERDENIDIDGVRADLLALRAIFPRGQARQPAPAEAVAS
T1 sequence (A0A1I4IFH0 1-199): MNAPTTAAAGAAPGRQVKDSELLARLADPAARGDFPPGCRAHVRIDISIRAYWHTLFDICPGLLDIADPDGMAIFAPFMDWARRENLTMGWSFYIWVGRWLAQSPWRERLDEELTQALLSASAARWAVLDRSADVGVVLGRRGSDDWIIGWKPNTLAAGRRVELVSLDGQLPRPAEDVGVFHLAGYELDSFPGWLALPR
Description: Standard UV-Vis spectra detection was performed on a UV-Vis and Vis instrument (Ultrospec 2100 pro, Biochrom, UK) at room temperature. MtMbnBC and RrMbnBC proteins were adjusted to 5 mg/mL (nearly 100 μM), and VcMbnBC was adjusted to a concentration of 1 mg/mL (nearly 20 μM). The corresponding substrates, VcMbnA, RrMbnA, MtMbnA, and their variants (Supplementary information, Table S5), were dissolved in distilled water and diluted to a working concentration of 5 mM with buffer B. The reaction was initiated when 100 μL MbnBC proteins and 5 μL MbnA peptides were applied to the reaction system, and the reaction was diluted up to 1 mL with buffer B. The mixture was then added into a quartz cuvette and recorded at 20-s intervals for a total of 50 reads at room temperature. For assays using anaerobically prepared MbnBC proteins, the measurements were immediately recorded by adding the anaerobically prepared MbnBC into the reaction system, with peptides pre-mixed in the quartz cuvette. The buffer B used in the assay was O2-saturated at room temperature.
For the stopped-flow UV-Vis spectroscopic analysis, 10 μM MtMbnBC or RrMbnBC or 2 μM VcMbnBC was incubated with 250 μM MbnA peptides at room temperature for 1 h, followed by detection on a UV-Vis and Vis instrument (Nanodrop One, Thermo Scientific, MA). Data were processed by Graphpad Prism version 8.3.

[2] = target: T1, RrMbnBC; test: Limited proteolysis assay of RrMbnBC with MbnA; design: species or system Rugamonas rubra ATCC 43154; conditions: ~20 µM RrMbnBC incubated with MbnA 1 h at 4 °C, trypsin 30 min on ice, SDS-PAGE
Description: The limited proteolysis assay allows the characterization of the increase in stability of wild-type proteins upon binding to their substrates. The VcMbnBC and RrMbnBC proteins used in this assay were all adjusted to an equal molar concentration of about 20 µM. The RrMbnBC or VcMbnBC complex, by itself or after incubation with the corresponding MbnA peptide for 1 h at 4 °C, was digested by trypsin. After 30 min of incubation on ice, the proteolyzed products were analyzed by SDS-PAGE and visualized by Coomassie blue staining.

[3] = test system: VcMbnBC; test: ITC measurement of VcMbnA and variants binding affinity to VcMbnBC; design: species or system Vibrio caribbenthicus BAA-2122
Description: MbnBC and the mutant proteins were all purified using the two-step standard method described above. The purified proteins were adjusted to 1 mg/mL and stored in 25 mM HEPES (pH 8.0) and 100 mM NaCl for ITC measurement. The MbnAs were dissolved and diluted to a working concentration of 2 mM in distilled water. ITC experiments were performed on a Nano ITC (Nano ITC-Low Volume; TA instrument, USA). Settings for the MbnA binding assay were optimized as follows: the titration assay was performed at 16 °C by injecting 2.5 μL MbnA peptide into a full cell containing 190 μL MbnBC or mutant MbnBC proteins every 120 s for a total of 20 injections, and the stirrer syringe stirring speed was set at 250 rpm.

[4] = target: T2, RrMbnBC complex (Rugamonas rubra ATCC 43154); test: ITC
T2 chain 1: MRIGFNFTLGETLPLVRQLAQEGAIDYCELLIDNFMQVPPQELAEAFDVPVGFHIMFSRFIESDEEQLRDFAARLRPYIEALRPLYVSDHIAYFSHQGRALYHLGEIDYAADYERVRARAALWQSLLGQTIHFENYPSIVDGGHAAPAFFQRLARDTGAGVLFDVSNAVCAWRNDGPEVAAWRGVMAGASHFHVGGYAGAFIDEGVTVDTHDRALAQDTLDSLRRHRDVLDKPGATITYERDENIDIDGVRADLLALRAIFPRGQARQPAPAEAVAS
T2 chain 2: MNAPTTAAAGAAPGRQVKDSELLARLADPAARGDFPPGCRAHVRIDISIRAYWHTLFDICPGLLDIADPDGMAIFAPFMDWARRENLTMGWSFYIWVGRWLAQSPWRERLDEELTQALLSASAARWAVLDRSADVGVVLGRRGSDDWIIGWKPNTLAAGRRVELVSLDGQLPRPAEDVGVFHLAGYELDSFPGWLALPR

[5] = target: T2, RrMbnBC complex; test: ITC
[6] = target: T3, VcMbnBC complex (Vibrio caribbenthicus BAA-2122); test: ITC
T3 chain 1: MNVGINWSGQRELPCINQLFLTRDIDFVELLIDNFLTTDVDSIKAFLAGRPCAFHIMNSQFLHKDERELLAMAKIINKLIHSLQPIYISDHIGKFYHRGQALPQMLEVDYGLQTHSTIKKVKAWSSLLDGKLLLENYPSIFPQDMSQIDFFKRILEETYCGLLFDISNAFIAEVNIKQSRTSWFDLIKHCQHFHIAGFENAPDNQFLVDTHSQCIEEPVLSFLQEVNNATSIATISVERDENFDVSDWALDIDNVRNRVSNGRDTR
T3 chain 2: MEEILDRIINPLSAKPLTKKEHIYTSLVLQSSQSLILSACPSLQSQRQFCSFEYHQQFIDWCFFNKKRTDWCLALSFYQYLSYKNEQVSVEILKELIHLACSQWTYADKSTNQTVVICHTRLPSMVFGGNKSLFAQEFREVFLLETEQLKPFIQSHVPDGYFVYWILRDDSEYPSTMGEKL

CC[C@H](C)[C@H](NC(=O)[C@H](CCC(=O)O)NC(=O)[C@@H](NC(=O)[C@H](CCCCN)NC(=O)[C@H](CCCCN)NC(=O)[C@@H](NC(=O)[C@@H](NC(=O)[C@@H](NC(=O)[C@@H](NC(=O)[C@H](CCCCN)NC(=O)[C@@H](N)CCSC)[C@@H](C)CC)C(C)C)[C@@H](C)CC)C(C)C)C(C)C)C(=O)N[C@@H](CCC(N)=O)C(=O)N[C@H](C(=O)N[C@@H](C)C(=O)NCC(=O)N[C@@H](CCCNC(=N)N)C(=O)N[C@H](C(=O)NCC(=O)N[C@@H](CCSC)C(=O)N[C@@H](CCCNC(=N)N)C(=O)N[C@@H](CS)C(=O)N[C@@H](C)C(=O)N[C@@H](CO)C(=O)N[C@@H](CO)C(=O)N[C@@H](CS)C(=O)NCC(=O)N[C@@H](C)C(=O)N[C@@H](CCCCN)C(=O)N[C@@H](CO)C(=O)O)[C@@H](C)O)C(C)C [RrMbnA] (H-MKIVIVKKVEIQVAGRTGMRCASSCGAKS-OH)
modification by co-expressed RrMbnBC, UV-Vis absorption at ~335 nm [1]: could be modified
effect on RrMbnBC stability in limited proteolysis [2]: enhance RrMbnBC stability

MKNDKKVVVKVKDKEM [LP]
interaction with VcMbnBC (binding assays, in words) ([3]; ITC binding assays of VcMbnBC with VcMbnA variants): weak interaction
Kd ([3]; ITC, 16 °C, 2 mM peptide, 20 injections of 2.5 μL into 190 μL VcMbnBC 1 mg/mL in 25 mM HEPES pH 8.0, 100 mM NaCl, one-site binding, read-out: Kd, VcMbnA or variant/VcMbnBC): 63.8 ± 10.5 µM

MKIVIVKKVEIQVAGRTGMRCASSCGAKS [RrMbnA peptide]
Kd [4]: 2.7 µM

MKNDKKVVVKVKDKEMTCGAFNK [VcMbnA peptide]
Kd [5]: 4.14 µM
Kd [6]: 3 µM
